Assay [1] deals with Calcium-dependent protein kinase 1 (Plasmodium falciparum) (UniProt P62344). As to conditions: Compound concentration 1000.0 nM; call rule not given here.
Assay [2] has as its target Serine/threonine-protein kinase N2 (Homo sapiens) (UniProt Q16513). To be noted: Compound concentration 1000.0 nM.
The target in assay [3] is Calcium/calmodulin-dependent protein kinase type II subunit delta (Homo sapiens) (UniProt Q13557). To be noted: Compound concentration 1000.0 nM.
Assay [4] deals with Casein kinase II subunit alpha (Homo sapiens) (UniProt P68400). As to conditions: Compound concentration 1000.0 nM.
Casein kinase II subunit alpha (Homo sapiens), sequence (P68400 whole entry, looked up): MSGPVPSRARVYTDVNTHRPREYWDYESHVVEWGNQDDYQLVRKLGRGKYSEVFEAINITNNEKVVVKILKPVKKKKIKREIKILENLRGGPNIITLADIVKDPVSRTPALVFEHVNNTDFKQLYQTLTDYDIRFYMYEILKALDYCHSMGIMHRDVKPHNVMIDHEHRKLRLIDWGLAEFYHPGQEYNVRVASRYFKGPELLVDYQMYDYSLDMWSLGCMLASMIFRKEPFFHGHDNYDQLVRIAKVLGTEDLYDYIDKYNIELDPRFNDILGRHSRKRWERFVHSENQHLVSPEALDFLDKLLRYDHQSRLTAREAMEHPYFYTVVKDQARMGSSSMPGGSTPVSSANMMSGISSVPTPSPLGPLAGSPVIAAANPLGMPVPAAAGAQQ
Assay [5] has as its target Serine/threonine-protein kinase RIO1 (Homo sapiens) (UniProt Q9BRS2). As to conditions: Compound concentration 1000.0 nM.
The subject of the next assay is SK-BR-3. Kind of assay: Proliferation assay: SK-BR-3 (breast cancer). Type of assay: functional, cell-based. As to conditions: Homo sapiens.
Assay [6] addresses Cyclin-dependent kinase 2 (Homo sapiens) (UniProt P24941). As to conditions: Compound concentration 1000.0 nM.
Assay [7] concerns the target SRSF protein kinase 2 (Homo sapiens) (UniProt P78362). As to conditions: Compound concentration 1000.0 nM.
The target of assay [8] is Ephrin type-A receptor 6 (Homo sapiens) (UniProt Q9UF33). To be noted: Compound concentration 1000.0 nM.
For assay [9], the system named is Epidermal growth factor receptor (Homo sapiens), P00533 [UNDEFINED MUTATION]. As to conditions: Compound concentration 1000.0 nM.
Epidermal growth factor receptor (Homo sapiens), P00533 [UNDEFINED MUTATION], sequence (P00533 whole entry, looked up, change not shown): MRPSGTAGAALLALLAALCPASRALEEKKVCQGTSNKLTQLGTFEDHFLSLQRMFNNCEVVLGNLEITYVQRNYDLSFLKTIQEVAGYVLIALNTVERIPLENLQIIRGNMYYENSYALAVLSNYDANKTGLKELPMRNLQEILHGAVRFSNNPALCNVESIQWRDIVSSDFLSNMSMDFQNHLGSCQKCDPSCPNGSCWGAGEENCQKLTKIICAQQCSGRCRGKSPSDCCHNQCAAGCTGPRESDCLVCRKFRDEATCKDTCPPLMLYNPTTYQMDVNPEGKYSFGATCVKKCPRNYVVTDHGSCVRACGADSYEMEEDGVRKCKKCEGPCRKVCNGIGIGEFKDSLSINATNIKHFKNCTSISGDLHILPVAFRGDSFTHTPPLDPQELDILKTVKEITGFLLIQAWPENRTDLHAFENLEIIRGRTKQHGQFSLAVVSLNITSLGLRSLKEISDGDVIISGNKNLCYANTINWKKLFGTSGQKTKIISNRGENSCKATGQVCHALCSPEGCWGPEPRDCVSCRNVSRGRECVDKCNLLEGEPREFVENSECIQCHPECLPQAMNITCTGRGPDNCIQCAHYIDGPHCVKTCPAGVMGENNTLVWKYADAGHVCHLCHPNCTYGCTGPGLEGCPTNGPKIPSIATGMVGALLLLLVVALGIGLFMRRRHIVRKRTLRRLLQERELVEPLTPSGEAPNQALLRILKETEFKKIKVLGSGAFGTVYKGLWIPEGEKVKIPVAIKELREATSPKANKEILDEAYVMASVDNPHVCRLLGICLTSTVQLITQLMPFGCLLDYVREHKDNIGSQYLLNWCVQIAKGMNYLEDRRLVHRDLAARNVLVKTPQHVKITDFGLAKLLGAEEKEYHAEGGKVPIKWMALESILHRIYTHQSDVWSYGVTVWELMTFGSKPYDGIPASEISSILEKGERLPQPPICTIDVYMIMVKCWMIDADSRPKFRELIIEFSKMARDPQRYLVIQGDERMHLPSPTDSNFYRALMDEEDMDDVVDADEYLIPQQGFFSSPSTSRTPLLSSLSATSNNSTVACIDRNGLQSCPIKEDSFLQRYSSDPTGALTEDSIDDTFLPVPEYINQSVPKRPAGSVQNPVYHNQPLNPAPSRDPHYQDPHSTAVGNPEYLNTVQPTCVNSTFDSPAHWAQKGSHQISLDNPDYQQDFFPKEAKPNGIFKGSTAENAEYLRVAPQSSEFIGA
Assay [10] addresses T1, Aurora kinase A (Homo sapiens) (UniProt O14965).
T1 sequence (whole entry): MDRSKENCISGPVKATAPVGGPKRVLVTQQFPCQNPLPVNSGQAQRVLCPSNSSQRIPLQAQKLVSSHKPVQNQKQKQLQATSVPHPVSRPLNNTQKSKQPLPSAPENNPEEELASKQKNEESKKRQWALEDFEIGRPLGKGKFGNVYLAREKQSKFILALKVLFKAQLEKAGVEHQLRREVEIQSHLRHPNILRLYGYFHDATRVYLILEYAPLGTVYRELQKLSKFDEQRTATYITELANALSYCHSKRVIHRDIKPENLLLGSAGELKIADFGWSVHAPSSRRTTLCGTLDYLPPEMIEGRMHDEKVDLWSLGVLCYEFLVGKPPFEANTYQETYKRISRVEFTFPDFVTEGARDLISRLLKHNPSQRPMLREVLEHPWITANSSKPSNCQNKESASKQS
To be noted: Compound concentration 1000.0 nM.

The subject of assay [11] is Epidermal growth factor receptor (Homo sapiens), P00533 [UNDEFINED MUTATION]. As to conditions: Compound concentration 1000.0 nM. The source holds these as a separate data set.
Assay [12] has as its target Mitogen-activated protein kinase 10 (Homo sapiens) (UniProt P53779). To be noted: Compound concentration 1000.0 nM.
In assay [13] the target is Serine/threonine-protein kinase PAK 5 (Homo sapiens) (UniProt Q9P286). As to conditions: Compound concentration 1000.0 nM.
Assay [14] concerns the target 5-hydroxytryptamine receptor 1E (Homo sapiens) (UniProt P28566). As to conditions: Compound concentration 10.0 uM.
Assay [15] has as its target T2, Ephrin type-A receptor 1 (Homo sapiens) (UniProt P21709).
T2 sequence (whole entry): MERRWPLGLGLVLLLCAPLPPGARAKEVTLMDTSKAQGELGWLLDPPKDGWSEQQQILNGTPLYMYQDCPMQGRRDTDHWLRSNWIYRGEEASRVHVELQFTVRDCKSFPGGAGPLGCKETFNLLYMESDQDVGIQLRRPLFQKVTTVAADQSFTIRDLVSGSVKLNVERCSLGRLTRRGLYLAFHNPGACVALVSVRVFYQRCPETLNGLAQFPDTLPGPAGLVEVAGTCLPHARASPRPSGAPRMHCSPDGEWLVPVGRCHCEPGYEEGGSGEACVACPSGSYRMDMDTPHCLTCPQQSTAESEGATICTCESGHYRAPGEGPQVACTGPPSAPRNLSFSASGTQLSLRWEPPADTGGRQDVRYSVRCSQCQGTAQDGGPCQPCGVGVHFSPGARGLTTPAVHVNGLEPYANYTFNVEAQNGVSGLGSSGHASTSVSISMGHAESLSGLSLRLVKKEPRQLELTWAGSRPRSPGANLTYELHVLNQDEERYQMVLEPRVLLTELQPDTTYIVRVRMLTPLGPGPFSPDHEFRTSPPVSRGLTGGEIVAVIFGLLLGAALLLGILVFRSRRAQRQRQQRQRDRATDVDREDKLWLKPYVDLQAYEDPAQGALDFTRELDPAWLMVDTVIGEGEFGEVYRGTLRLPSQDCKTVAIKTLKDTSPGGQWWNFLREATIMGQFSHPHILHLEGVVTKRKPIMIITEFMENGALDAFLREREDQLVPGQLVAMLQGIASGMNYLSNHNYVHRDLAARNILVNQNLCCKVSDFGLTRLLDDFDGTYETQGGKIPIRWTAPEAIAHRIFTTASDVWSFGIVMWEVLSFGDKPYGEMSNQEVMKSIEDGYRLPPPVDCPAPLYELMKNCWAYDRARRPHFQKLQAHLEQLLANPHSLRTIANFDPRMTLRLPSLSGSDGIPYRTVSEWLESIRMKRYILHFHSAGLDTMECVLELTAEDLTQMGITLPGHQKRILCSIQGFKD
To be noted: Compound concentration 1000.0 nM.

Assay [16] has as its target Muscarinic acetylcholine receptor M2 (Homo sapiens) (UniProt P08172). As to conditions: Compound concentration 10.0 uM.
Assay [17] concerns the target Leucine-rich repeat serine/threonine-protein kinase 2 (Homo sapiens) (UniProt Q5S007). To be noted: Compound concentration 1000.0 nM.
The target in assay [18] is G protein-coupled receptor kinase 4 (Homo sapiens) (UniProt P32298). As to conditions: Compound concentration 1000.0 nM.
The subject of assay [19] is Proto-oncogene tyrosine-protein kinase receptor Ret (Homo sapiens), P07949 [V804L]. To be noted: Compound concentration 1000.0 nM.

Bounds are passed on as bounds.

Serine/threonine-protein kinase RIO1 (Homo sapiens), sequence (Q9BRS2 whole entry): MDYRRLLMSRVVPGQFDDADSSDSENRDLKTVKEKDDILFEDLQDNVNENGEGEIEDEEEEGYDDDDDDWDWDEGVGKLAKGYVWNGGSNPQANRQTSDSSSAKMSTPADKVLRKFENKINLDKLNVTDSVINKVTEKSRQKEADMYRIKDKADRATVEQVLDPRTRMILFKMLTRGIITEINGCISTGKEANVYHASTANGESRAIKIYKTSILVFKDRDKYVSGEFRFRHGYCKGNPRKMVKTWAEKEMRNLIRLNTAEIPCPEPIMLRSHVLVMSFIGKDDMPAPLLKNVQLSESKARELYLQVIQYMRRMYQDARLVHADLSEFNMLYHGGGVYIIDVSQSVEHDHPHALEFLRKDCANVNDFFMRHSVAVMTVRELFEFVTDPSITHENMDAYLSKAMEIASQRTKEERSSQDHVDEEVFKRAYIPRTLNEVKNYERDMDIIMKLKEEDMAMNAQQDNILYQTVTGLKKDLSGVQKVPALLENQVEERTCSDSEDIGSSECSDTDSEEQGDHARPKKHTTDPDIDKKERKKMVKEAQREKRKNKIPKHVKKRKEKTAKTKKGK
Muscarinic acetylcholine receptor M2 (Homo sapiens), sequence (P08172 whole entry): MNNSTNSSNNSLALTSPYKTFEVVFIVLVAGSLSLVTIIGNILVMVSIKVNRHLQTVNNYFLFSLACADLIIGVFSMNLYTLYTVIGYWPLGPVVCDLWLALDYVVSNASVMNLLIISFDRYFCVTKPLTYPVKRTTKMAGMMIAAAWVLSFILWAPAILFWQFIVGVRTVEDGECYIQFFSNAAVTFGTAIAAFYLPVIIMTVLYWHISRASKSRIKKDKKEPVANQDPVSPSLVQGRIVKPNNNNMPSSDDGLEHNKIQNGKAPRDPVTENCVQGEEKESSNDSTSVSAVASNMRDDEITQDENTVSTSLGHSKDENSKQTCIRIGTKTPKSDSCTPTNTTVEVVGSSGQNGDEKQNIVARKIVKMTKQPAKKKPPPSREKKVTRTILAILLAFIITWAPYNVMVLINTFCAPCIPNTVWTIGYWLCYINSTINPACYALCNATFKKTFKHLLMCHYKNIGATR
Proto-oncogene tyrosine-protein kinase receptor Ret (Homo sapiens), P07949 [V804L], sequence (P07949 whole entry V804L): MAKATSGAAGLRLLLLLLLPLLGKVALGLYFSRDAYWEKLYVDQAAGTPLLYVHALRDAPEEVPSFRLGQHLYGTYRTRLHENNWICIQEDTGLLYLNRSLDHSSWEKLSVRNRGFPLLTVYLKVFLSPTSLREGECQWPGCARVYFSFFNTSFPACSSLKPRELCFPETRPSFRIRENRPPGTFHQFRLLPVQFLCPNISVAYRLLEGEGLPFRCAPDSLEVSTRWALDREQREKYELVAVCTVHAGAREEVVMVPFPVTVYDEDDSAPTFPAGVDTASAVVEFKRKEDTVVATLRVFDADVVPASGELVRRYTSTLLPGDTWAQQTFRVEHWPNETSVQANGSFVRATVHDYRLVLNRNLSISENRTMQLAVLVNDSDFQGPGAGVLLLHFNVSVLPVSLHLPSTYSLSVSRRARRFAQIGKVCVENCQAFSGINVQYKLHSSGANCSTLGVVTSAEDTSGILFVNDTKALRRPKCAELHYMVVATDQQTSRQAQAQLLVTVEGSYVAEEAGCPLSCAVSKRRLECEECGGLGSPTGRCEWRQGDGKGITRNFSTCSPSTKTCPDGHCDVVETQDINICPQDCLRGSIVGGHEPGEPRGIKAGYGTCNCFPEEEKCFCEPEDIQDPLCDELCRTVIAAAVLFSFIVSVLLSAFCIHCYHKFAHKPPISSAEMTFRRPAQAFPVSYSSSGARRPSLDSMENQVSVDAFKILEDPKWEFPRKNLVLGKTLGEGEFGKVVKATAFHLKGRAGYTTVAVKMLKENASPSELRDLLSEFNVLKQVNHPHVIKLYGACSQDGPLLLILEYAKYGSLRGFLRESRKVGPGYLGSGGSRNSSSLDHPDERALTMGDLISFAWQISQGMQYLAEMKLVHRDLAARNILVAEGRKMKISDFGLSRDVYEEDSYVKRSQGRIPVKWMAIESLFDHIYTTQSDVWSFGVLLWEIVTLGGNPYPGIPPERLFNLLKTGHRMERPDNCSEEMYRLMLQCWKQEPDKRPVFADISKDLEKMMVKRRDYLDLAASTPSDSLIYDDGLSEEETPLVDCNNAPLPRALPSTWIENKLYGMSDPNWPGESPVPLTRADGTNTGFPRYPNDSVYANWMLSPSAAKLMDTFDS
Serine/threonine-protein kinase N2 (Homo sapiens), sequence (Q16513 whole entry, looked up): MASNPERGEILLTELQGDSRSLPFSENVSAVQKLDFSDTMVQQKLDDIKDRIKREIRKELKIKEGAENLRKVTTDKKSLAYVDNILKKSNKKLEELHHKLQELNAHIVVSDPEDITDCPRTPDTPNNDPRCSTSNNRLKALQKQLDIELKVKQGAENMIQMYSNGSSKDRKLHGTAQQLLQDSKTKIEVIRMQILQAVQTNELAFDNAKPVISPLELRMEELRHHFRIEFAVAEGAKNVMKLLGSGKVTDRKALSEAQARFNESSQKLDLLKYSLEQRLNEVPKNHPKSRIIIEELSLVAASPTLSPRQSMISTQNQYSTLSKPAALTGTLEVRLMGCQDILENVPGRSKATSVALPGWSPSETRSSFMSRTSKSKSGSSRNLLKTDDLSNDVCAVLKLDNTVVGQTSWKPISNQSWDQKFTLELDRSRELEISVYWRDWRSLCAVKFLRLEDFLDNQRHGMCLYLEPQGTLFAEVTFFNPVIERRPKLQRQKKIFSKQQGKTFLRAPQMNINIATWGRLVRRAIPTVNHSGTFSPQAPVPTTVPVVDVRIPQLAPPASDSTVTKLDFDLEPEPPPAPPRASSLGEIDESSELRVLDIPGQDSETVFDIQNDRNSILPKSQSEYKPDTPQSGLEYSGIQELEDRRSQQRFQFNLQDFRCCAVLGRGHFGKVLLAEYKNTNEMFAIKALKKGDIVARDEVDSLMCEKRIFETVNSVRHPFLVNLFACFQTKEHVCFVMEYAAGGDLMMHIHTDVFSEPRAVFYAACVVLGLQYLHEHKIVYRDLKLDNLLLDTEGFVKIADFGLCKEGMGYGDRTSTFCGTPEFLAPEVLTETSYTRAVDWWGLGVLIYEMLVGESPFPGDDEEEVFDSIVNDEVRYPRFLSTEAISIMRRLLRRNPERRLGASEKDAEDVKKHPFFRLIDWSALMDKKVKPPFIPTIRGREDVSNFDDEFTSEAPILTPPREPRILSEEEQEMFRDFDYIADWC

One may read the IC50 as the concentration that gives 50% inhibition. Lower therefore signals higher potency. In general, inhibition refers to the drop in the measured response relative to a control, in per cent. Turning to `Cc1nc(C2CCN(C(=O)c3ccc(OC(F)(F)F)cc3N)CC2)c2ncc(N3CCN(C)CC3)cc2n1` [BAY-693], the residual activity in assay [1] is 100%; in assay [2], 100%; in [3] it was 100%; in [4], 99%; in assay [5], 100%; in [6] it was 87%. Also, the residual activity in assay [7] is 74%; in assay [8], 95%; in [9], 100%; in assay [10], 99%; in assay [11] it was 49%; in [12], 100%. Further, the residual activity in assay [13] is 99%; in assay [15], 100%; in assay [17], 89%; in [18], 96%; in assay [19], 73%. In the assay with SK-BR-3, the concentration for half-maximal inhibition (IC50) is given as 22.4 µM (not active). The inhibition is -9.94% in [14] and -1% in assay [16].
Turning to `CN1CCN(c2cnc3c(C4CCN(C(=O)c5ccc(OC(F)(F)F)cc5N)CC4)ncnc3c2)CC1` [BAY-885], the residual activity in assay [1], in assay [2], in assay [3], in assay [4], in assay [5] and in assay [6] was 100% throughout. Also, the residual activity was 78% in [7]; 100% in [8]; 100% in assay [9]; 100% in [10]; 38% in assay [11]; 100% in assay [12]. Moreover, the residual activity in [13] was 100%; in assay [15], 95%; in assay [17], 100%; in assay [18], 100%; in assay [19] it was 97%. Further, the IC50 with SK-BR-3 is > 30 µM (not active). Further, the inhibition in assay [14] is 14.2%; in assay [16] it was -0.56%.
